“And” between values parts separate entries of the source, which are not always exact repeats. Equal entries are not always repeated.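 48-hour exposure; five concentrations; linearly interpolated endpoints. GI50: concentration for 50% inhibition of growth. At the TGI there is no net growth.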
Assays:
Assay in all cases: growth of human tumour cells (NCI), 48 h
MDA-MB-435 = tested on: MDA-MB-435
NCI/ADR-RES ovarian = tested on: NCI/ADR-RES ovarian
T-47D breast = tested on: T-47D breast
DMS 114 small cell lung = tested on: DMS 114 small cell lung
DMS 273 small cell lung = tested on: DMS 273 small cell lung
HOP-18 NSCLC = tested on: HOP-18 NSCLC
PC-3 prostate = tested on: PC-3 prostate
SNB-78 CNS = tested on: SNB-78 CNS
XF 498 CNS = tested on: XF 498 CNS
LXFL 529 NSCLC = tested on: LXFL 529 NSCLC

Row | Structure (SMILES) | GI50 (MDA-MB-435) | TGI (MDA-MB-435) [µM] | GI50 (NCI/ADR-RES ovarian) [µM] | TGI (NCI/ADR-RES ovarian) [µM] | GI50 (T-47D breast) [µM] | TGI (T-47D breast) [µM] | TGI (DMS 114 small cell lung) [µM] | TGI (DMS 273 small cell lung) [µM] | TGI (HOP-18 NSCLC) [µM] | GI50 (PC-3 prostate) | TGI (PC-3 prostate) [µM] | TGI (SNB-78 CNS) [µM] | TGI (XF 498 CNS) [µM] | TGI (LXFL 529 NSCLC) [µM]
1 | O=[N+]([O-])c1cc([N+](=O)[O-])c(Cl)c(Cl)c1Cl | 1.72 µM | 3.33 | 2.87 | > 100 | 0.631 | 2.84 | – | – | – | – | – | – | – | –
2 | NC(C/[N+]([O-])=N/O)C(=O)O (stereo not given) | 11.7 µM and 17.9 µM and 10.6 µM | > 500 | – | > 434 | 198 | > 500 | 10.9 | 50.4 | > 472 | 6.71 µM and 3.64 µM and 4.92 µM | > 500 | > 500 | 40.1 | –
3 | O=C(C/C(=N\NC(=O)C[n+]1ccccc1)C(=O)Nc1nc2ccc([N+](=O)[O-])cc2s1)CC(c1ccccc1)c1c(O)c2ccccc2oc1=O (stereo not given) | – | – | – | – | – | – | > 100 | – | – | – | – | – | – | –
4 | Cc1cc(=O)oc2c(CN3CCCCC3)c(O)ccc12 | – | > 100 | – | > 100 | – | > 100 | – | – | – | – | > 100 | – | – | –
5 | O=C(/C=C/C12c3ccccc3C(c3ccccc31)C1C(=O)N(c3ccccc3)C(=O)C12)c1ccc(Cl)cc1 (stereo not given) | 1.93 µM | 5.39 | 2.16 | 8.47 | – | – | – | – | – | 1.42 µM | 8.27 | – | – | –
6 | N=Nc1c(OC(=O)Nc2ccccc2)[nH]c2ccccc12 | – | 45.1 | – | > 100 | – | 37.7 | – | – | – | – | 34.4 | – | – | –
7 | CC1(C)C(c2ccccc2)C12CCC1(C2=O)C(c2ccccc2)C1(C)C (stereo not given) | – | – | – | – | – | – | 34.9 | 45.3 | – | – | – | 62.4 | 36.1 | > 100
8 | CCN(CC)C(=O)CC1=C(C)/C(=C/c2[nH]c(-c3ccc[nH]3)cc2OC)N=C1C | 0.412 µM | 14.6 | 0.563 | 14.8 | 0.272 | 13.1 | – | – | – | 0.35 µM | 33 | – | – | –
9 | CC(=O)Nc1ccc(-c2c3nc(c(-c4cc5ccccc5[n+](C)c4)c4ccc([nH]4)c(-c4ccc(NC(C)=O)cc4)c4nc(c(-c5cc6ccccc6[n+](C)c5)c5ccc2[nH]5)C=C4)C=C3)cc1 | 7.19 µM | 30.6 | 13.3 | 45.7 | 8.6 | 29.6 | – | – | – | 15.1 µM | > 50 | – | – | –
10 | Cc1cc(=O)n(-c2ccccc2)c(=O)o1 | – | – | – | – | – | – | > 100 | > 100 | > 100 | – | – | > 100 | – | > 100
11 | CCC1=C(C)/C(=C/c2[nH]c(C(Br)Br)c(CC)c2C)N=C1C(Br)Br | – | – | – | – | – | – | 88.6 | – | > 100 | – | – | > 100 | – | > 100
12 | O=C1c2ccccc2NC(c2cc(Cl)cc(Cl)c2O)N1CCc1ccccn1 (stereo not given) | – | > 100 | – | > 100 | – | 69.8 | – | – | – | – | > 100 | – | – | –
13 | COc1ccc(-c2nn(-c3ccc(NC(=O)c4ccc(Cl)c(C(F)(F)F)c4)cc3)cc2-c2ccncc2)cc1Cl | 1.16 µM | > 100 | 2.07 | > 100 | 3.78 | > 100 | – | – | – | 0.669 µM | > 100 | – | – | –
14 | CN1CCN(CCCOc2cccc3nc(Nc4ccc(Cl)c(F)c4)ccc23)CC1 | 1.61 µM | 3.14 | 1.8 | 3.77 | 1.78 | 4.02 | – | – | – | 1.76 µM | 3.41 | – | – | –
15 | O=C(CCN1CCOCC1)Nc1ccc(F)cc1F | – | > 100 | – | > 100 | – | > 100 | – | – | – | – | > 100 | – | – | –
16 | COC(=O)CCC(C)[C@H]1CCC2C3C(C[C@H](OC(C)=O)[C@@]21C)[C@@]1(C)CCC2(C[C@H]1C[C@H]3OC(C)=O)OOC1(CCC(C)CC1)OO2 (stereo not given in full) | 10.9 µM and 43.4 µM | > 100 | – | > 100 | – | > 100 | – | – | – | 2.98 µM and 7.43 µM | > 100 | – | – | –
17 | O=C(Cn1c(=O)c(-c2ccccc2)nc2ccccc21)c1ccc(Cl)cc1 | > 100 µM | > 100 | 48 | > 100 | > 100 | > 100 | – | – | – | 34.6 µM | > 100 | – | – | –
18 | Clc1ccccc1C(n1ncc2ccccc21)n1ncc2ccccc21 | – | – | – | – | – | – | > 100 | > 100 | – | – | – | > 100 | > 100 | > 100
19 | CC(N=C(N)N)C(=O)O (stereo not given) | – | > 100 | – | > 100 | – | > 100 | – | – | – | – | > 100 | – | – | –
20 | Cc1oc2nc[nH]c(=O)c2c1C(=O)/C=C/c1ccc(Cl)cc1 | 2.4 µM | 8.64 | 2.44 | 21 | 1.72 | 7.82 | – | – | – | 2.49 µM | 8.76 | – | – | –
21 | CCOC(=O)c1cc(/C=C/C(C)=C/C(=O)OC)oc1-c1ccccc1 | – | – | – | – | – | – | > 100 | > 100 | > 100 | – | – | – | > 100 | –
22 | NC(=O)c1cc(-c2ccncc2)cc(-c2ccccc2)c1N | > 25 µM | > 25 | > 21 | > 25 | 9.57 | > 25 | – | – | – | > 22.3 µM | > 25 | – | – | –
23 | COC(=O)[C@H]1[C@H]2C[C@@H]3c4[nH]c5cc(OC)ccc5c4CCN3C[C@H]2C[C@@H](OC(=O)c2cc(OC)c(OC)c(OC)c2)[C@@H]1OC | – | – | – | – | – | – | 40.4 | 51.8 | – | – | – | – | – | 35.7
24 | CCCCN(CCCC)c1ccc(C(=N)c2ccc(N(C)C)cc2)cc1 | 0.348 µM | 1.33 | 0.335 | 1.27 | 0.322 | 1.51 | – | – | – | 0.409 µM | 1.67 | – | – | –
25 | [N-]=[N+]=Nc1ccc(CCN2CCN(c3cccc(C(F)(F)F)c3)CC2)cc1I | – | – | – | – | – | – | – | > 100 | – | – | – | > 100 | – | > 100
26 | COc1cc(N2CCN(C(C)C)CC2)ccc1Nc1nc(Nc2cccc3ncccc23)c2cc[nH]c2n1 | 5.47 µM | > 25 | 8.45 | > 25 | 3.8 | 13.6 | – | – | – | 8.99 µM | > 25 | – | – | –
27 | Cc1cc(Cc2cc(C)c(O)c(C)c2)cc(C)c1O | – | – | 3.95 | 48.5 | 4.64 | 72 | – | – | – | 14.8 µM | > 100 | – | – | –
28 | COc1cc([N+](=O)[O-])c(S(=O)(=O)O)cc1NS(=O)(=O)c1ccc(C)cc1 | – | > 100 | – | > 100 | – | > 100 | – | – | – | – | > 100 | – | – | –
29 | C=CCn1c(=O)c2cnc(Nc3ccc(N4CCN(C)CC4)cc3)nc2n1-c1ccc2c(n1)[C@@](O)(CC)CC2 | 0.226 µM | 0.795 | 5.69 | 33.5 | 2.17 | > 80.7 | – | – | – | 2.24 µM | > 100 | – | – | –
